From BindingDB's records for doi:10.1016/s0960-894x(03)00461-x (Eli Lilly, 2003)

Target: cAMP-dependent protein kinase catalytic subunit alpha (Bos taurus, UniProt P00517)
Assay: CDK Kinase Inhibition Assay
Settings: 25 °C

Row | SMILES | IC50
1 | O=C1NC(=O)c2c1c1c(ccc3cc[nH]c31)c1[nH]c3ccccc3c21 [3,13,18-triazahexacyclo[14.7.0.0^{2,10}.0^{4,9}.0^{11,15}.0^{17,21}]tricosa-1(16),2(10),4(9),5,7,11(15),17(21),19,22-nonaene-12,14-dione] | > 2 µM
2 | O=C1NC(=O)c2c1c1c(ccc3cc[nH]c31)c1c2c2ccccc2n1CCCO [3-(3-hydroxypropyl)-3,13,18-triazahexacyclo[14.7.0.0^{2,10}.0^{4,9}.0^{11,15}.0^{17,21}]tricosa-1(16),2(10),4(9),5,7,11(15),17(21),19,22-nonaene-12,14-dione] | > 20 µM
3 | Cn1ccc2ccc3c(c4c(c5c6ccccc6n(CCCO)c35)C(=O)NC4=O)c21 [3-(3-hydroxypropyl)-18-methyl-3,13,18-triazahexacyclo[14.7.0.0^{2,10}.0^{4,9}.0^{11,15}.0^{17,21}]tricosa-1(16),2(10),4(9),5,7,11(15),17(21),19,22-nonaene-12,14-dione] | > 2 µM
4 | COc1ccc2c3c4c(c5c(ccc6ccn(C)c65)c3n(CCN3CCC[C@H]3CO)c2c1)C(=O)NC4=O [3-{2-[(2S)-2-(hydroxymethyl)pyrrolidin-1-yl]ethyl}-6-methoxy-18-methyl-3,13,18-triazahexacyclo[14.7.0.0^{2,10}.0^{4,9}.0^{11,15}.0^{17,21}]tricosa-1(16),2(10),4(9),5,7,11(15),17(21),19,22-nonaene-12,14-dione] | > 20 µM
5 | Cn1ccc2ccc3c4[nH]c5c(CCO)cccc5c4c4c(c3c21)C(=O)NC4=O [5-(2-hydroxyethyl)-18-methyl-3,13,18-triazahexacyclo[14.7.0.0^{2,10}.0^{4,9}.0^{11,15}.0^{17,21}]tricosa-1(16),2(10),4(9),5,7,11(15),17(21),19,22-nonaene-12,14-dione] | > 20 µM
6 | Cn1ccc2ccc3c4[nH]c5c(CCCO)cccc5c4c4c(c3c21)C(=O)NC4=O [5-(3-hydroxypropyl)-18-methyl-3,13,18-triazahexacyclo[14.7.0.0^{2,10}.0^{4,9}.0^{11,15}.0^{17,21}]tricosa-1(16),2(10),4(9),5,7,11(15),17(21),19,22-nonaene-12,14-dione] | > 20 µM
7 | COc1cccc2c1[nH]c1c3ccc4ccn(C)c4c3c3c(c21)C(=O)NC3=O [5-methoxy-18-methyl-3,13,18-triazahexacyclo[14.7.0.0^{2,10}.0^{4,9}.0^{11,15}.0^{17,21}]tricosa-1(16),2(10),4(9),5,7,11(15),17(21),19,22-nonaene-12,14-dione] | > 20 µM
8 | Cc1ccc2c(c1)[nH]c1c3ccc4ccn(C)c4c3c3c(c21)C(=O)NC3=O [6,18-dimethyl-3,13,18-triazahexacyclo[14.7.0.0^{2,10}.0^{4,9}.0^{11,15}.0^{17,21}]tricosa-1(16),2(10),4(9),5,7,11(15),17(21),19,22-nonaene-12,14-dione] | > 20 µM
9 | Cn1ccc2ccc3c4[nH]c5cc(Br)ccc5c4c4c(c3c21)C(=O)NC4=O [6-bromo-18-methyl-3,13,18-triazahexacyclo[14.7.0.0^{2,10}.0^{4,9}.0^{11,15}.0^{17,21}]tricosa-1(16),2(10),4(9),5,7,11(15),17(21),19,22-nonaene-12,14-dione] | > 20 µM
10 | CCOc1ccc2c(c1)[nH]c1c3ccc4ccn(C)c4c3c3c(c21)C(=O)NC3=O [6-ethoxy-18-methyl-3,13,18-triazahexacyclo[14.7.0.0^{2,10}.0^{4,9}.0^{11,15}.0^{17,21}]tricosa-1(16),2(10),4(9),5,7,11(15),17(21),19,22-nonaene-12,14-dione] | > 20 µM
11 | Cc1cc2ccn(C)c2c2c3c(c4c5ccc(F)cc5[nH]c4c12)C(=O)NC3=O [6-fluoro-18,23-dimethyl-3,13,18-triazahexacyclo[14.7.0.0^{2,10}.0^{4,9}.0^{11,15}.0^{17,21}]tricosa-1(16),2(10),4(9),5,7,11(15),17(21),19,22-nonaene-12,14-dione] | > 20 µM
12 | Cn1ccc2ccc3c4[nH]c5cc(F)ccc5c4c4c(c3c21)C(=O)NC4=O [6-fluoro-18-methyl-3,13,18-triazahexacyclo[14.7.0.0^{2,10}.0^{4,9}.0^{11,15}.0^{17,21}]tricosa-1(16),2(10),4(9),5,7,11(15),17(21),19,22-nonaene-12,14-dione] | > 20 µM
13 | COc1ccc2c(c1)[nH]c1c2c2c(c3c1c(C)cc1ccn(C)c13)C(=O)NC2=O [6-methoxy-18,23-dimethyl-3,13,18-triazahexacyclo[14.7.0.0^{2,10}.0^{4,9}.0^{11,15}.0^{17,21}]tricosa-1(16),2(10),4(9),5,7,11(15),17(21),19,22-nonaene-12,14-dione] | > 20 µM
14 | COc1ccc2c(c1)[nH]c1c3ccc4ccn(C)c4c3c3c(c21)C(=O)NC3=O [6-methoxy-18-methyl-3,13,18-triazahexacyclo[14.7.0.0^{2,10}.0^{4,9}.0^{11,15}.0^{17,21}]tricosa-1(16),2(10),4(9),5,7,11(15),17(21),19,22-nonaene-12,14-dione] | > 20 µM
15 | Cn1ccc2ccc3c4[nH]c5ccc(F)cc5c4c4c(c3c21)C(=O)NC4=O [7-fluoro-18-methyl-3,13,18-triazahexacyclo[14.7.0.0^{2,10}.0^{4,9}.0^{11,15}.0^{17,21}]tricosa-1(16),2(10),4(9),5,7,11(15),17(21),19,22-nonaene-12,14-dione] | > 20 µM
16 | COc1ccc2[nH]c3c4ccc5ccn(C)c5c4c4c(c3c2c1)C(=O)NC4=O [7-methoxy-18-methyl-3,13,18-triazahexacyclo[14.7.0.0^{2,10}.0^{4,9}.0^{11,15}.0^{17,21}]tricosa-1(16),2(10),4(9),5,7,11(15),17(21),19,22-nonaene-12,14-dione] | > 20 µM
17 | Cn1ccc2ccc3c4[nH]c5cccc(CO)c5c4c4c(c3c21)C(=O)NC4=O [8-(hydroxymethyl)-18-methyl-3,13,18-triazahexacyclo[14.7.0.0^{2,10}.0^{4,9}.0^{11,15}.0^{17,21}]tricosa-1(16),2(10),4(9),5,7,11(15),17(21),19,22-nonaene-12,14-dione] | > 20 µM
18 | Cn1ccc2ccc3c4[nH]c5cccc(Br)c5c4c4c(c3c21)C(=O)NC4=O [8-bromo-18-methyl-3,13,18-triazahexacyclo[14.7.0.0^{2,10}.0^{4,9}.0^{11,15}.0^{17,21}]tricosa-1(16),2(10),4(9),5,7,11(15),17(21),19,22-nonaene-12,14-dione] | > 20 µM
19 | Cn1ccc2ccc3c4[nH]c5cccc(F)c5c4c4c(c3c21)C(=O)NC4=O [8-fluoro-18-methyl-3,13,18-triazahexacyclo[14.7.0.0^{2,10}.0^{4,9}.0^{11,15}.0^{17,21}]tricosa-1(16),2(10),4(9),5,7,11(15),17(21),19,22-nonaene-12,14-dione] | > 20 µM
20 | Cc1cc2ccn(C)c2c2c3c(c4c5ccccc5[nH]c4c12)C(=O)NC3=O [18,23-dimethyl-3,13,18-triazahexacyclo[14.7.0.0^{2,10}.0^{4,9}.0^{11,15}.0^{17,21}]tricosa-1(16),2(10),4(9),5,7,11(15),17(21),19,22-nonaene-12,14-dione] | > 20 µM
21 | Cc1cc2ccn(C)c2c2c3c(c4c5ccc(C(F)(F)F)cc5[nH]c4c12)C(=O)NC3=O [18,23-dimethyl-6-(trifluoromethyl)-3,13,18-triazahexacyclo[14.7.0.0^{2,10}.0^{4,9}.0^{11,15}.0^{17,21}]tricosa-1(16),2(10),4(9),5,7,11(15),17(21),19,22-nonaene-12,14-dione] | > 20 µM
22 | CCn1ccc2ccc3c4[nH]c5ccccc5c4c4c(c3c21)C(=O)NC4=O [18-ethyl-3,13,18-triazahexacyclo[14.7.0.0^{2,10}.0^{4,9}.0^{11,15}.0^{17,21}]tricosa-1(16),2(10),4(9),5,7,11(15),17(21),19,22-nonaene-12,14-dione] | > 2 µM
23 | Cn1ccc2ccc3c4[nH]c5ccccc5c4c4c(c3c21)C(=O)NC4=O [18-methyl-3,13,18-triazahexacyclo[14.7.0.0^{2,10}.0^{4,9}.0^{11,15}.0^{17,21}]tricosa-1(16),2(10),4(9),5,7,11(15),17(21),19,22-nonaene-12,14-dione] | > 20 µM
24 | Cn1ccc2ccc3c4[nH]c5c(CCN6CCOCC6)cccc5c4c4c(c3c21)C(=O)NC4=O [18-methyl-5-[2-(morpholin-4-yl)ethyl]-3,13,18-triazahexacyclo[14.7.0.0^{2,10}.0^{4,9}.0^{11,15}.0^{17,21}]tricosa-1(16),2(10),4(9),5,7,11(15),17(21),19,22-nonaene-12,14-dione] | > 20 µM
25 | Cn1ccc2ccc3c4[nH]c5c(CCN6CCSCC6)cccc5c4c4c(c3c21)C(=O)NC4=O [18-methyl-5-[2-(thiomorpholin-4-yl)ethyl]-3,13,18-triazahexacyclo[14.7.0.0^{2,10}.0^{4,9}.0^{11,15}.0^{17,21}]tricosa-1(16),2(10),4(9),5,7,11(15),17(21),19,22-nonaene-12,14-dione] | > 20 µM
26 | Cn1ccc2ccc3c4[nH]c5c(CCCN6CCOCC6)cccc5c4c4c(c3c21)C(=O)NC4=O [18-methyl-5-[3-(morpholin-4-yl)propyl]-3,13,18-triazahexacyclo[14.7.0.0^{2,10}.0^{4,9}.0^{11,15}.0^{17,21}]tricosa-1(16),2(10),4(9),5,7,11(15),17(21),19,22-nonaene-12,14-dione] | > 20 µM
27 | Cn1ccc2ccc3c4[nH]c5cc(C(F)(F)F)ccc5c4c4c(c3c21)C(=O)NC4=O [18-methyl-6-(trifluoromethyl)-3,13,18-triazahexacyclo[14.7.0.0^{2,10}.0^{4,9}.0^{11,15}.0^{17,21}]tricosa-1(16),2(10),4(9),5,7,11(15),17(21),19,22-nonaene-12,14-dione] | > 20 µM
28 | Cn1ccc2ccc3c4[nH]c5cc(C#N)ccc5c4c4c(c3c21)C(=O)NC4=O [18-methyl-12,14-dioxo-3,13,18-triazahexacyclo[14.7.0.0^{2,10}.0^{4,9}.0^{11,15}.0^{17,21}]tricosa-1(16),2(10),4(9),5,7,11(15),17(21),19,22-nonaene-6-carbonitrile] | > 20 µM
29 | Cn1ccc2cc(F)c3c4[nH]c5ccccc5c4c4c(c3c21)C(=O)NC4=O [23-fluoro-18-methyl-3,13,18-triazahexacyclo[14.7.0.0^{2,10}.0^{4,9}.0^{11,15}.0^{17,21}]tricosa-1(16),2(10),4(9),5,7,11(15),17(21),19,22-nonaene-12,14-dione] | > 20 µM
